For the test, the target named is T1, human RORγ-LBD (Homo sapiens, UniProt P51449).
T1 construct: made in house; host or cells: E. coli (BL-21)
T1 sequence (P51449 262-518): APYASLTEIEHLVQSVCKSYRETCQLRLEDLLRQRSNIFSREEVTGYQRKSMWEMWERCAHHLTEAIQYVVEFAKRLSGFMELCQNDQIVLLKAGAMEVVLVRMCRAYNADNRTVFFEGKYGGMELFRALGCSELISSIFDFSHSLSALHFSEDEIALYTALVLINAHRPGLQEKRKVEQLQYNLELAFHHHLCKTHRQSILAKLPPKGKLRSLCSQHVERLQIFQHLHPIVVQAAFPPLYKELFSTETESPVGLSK
The test is described as follows: ROR gamma coactivator peptide recruitment Alphascreen assay (RORγ-LBD binding to GRIP1 coactivator peptide). The class given is biochemical. Particulars: 5 nM human RORγ-LBD, 30 nM 7-β-hydroxycholesterol, 50 nM biotinylated GRIP1 coactivator peptide, overnight incubation at room temperature; read-out: result (pIC50, RORγ coactivator peptide recruitment Alphascreen assay) (converted). Put shortly: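 Alphascreen proximity read-out after overnight room-temperature incubation, yielding pIC50 from 1-in-2 compound series (2.5% DMSO final). Mixture: 50 nM biotin-GRIP1 peptide, 30 nM 7-β-hydroxycholesterol agonist, 5 nM recombinant 6×His:Flag human RORγ-LBD (aa 262-518), 50 mM HEPES pH 7.4.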
With `C[C@H]1CC[C@H](CN(CC(=O)c2c(Cl)cncc2Cl)C(=O)c2cnn([C@H]3CC[C@](C)(C(=O)O)CC3)c2C(F)(F)F)O1` [Example 705, trans-4-(4-((2-(3,5-dichloro-4-pyridinyl)-2-oxoethyl)(((2R,5S)-5-methyltetrahydro-2-furanyl)methyl)carbamoyl)-5-(trifluoromethyl)-1H-pyrazol-1-yl)-1-methylcyclohexanecarboxylic acid], the IC50 was 58.9 nM. With `C[C@@H]1CC[C@@H](CN(CC(=O)c2c(Cl)cncc2Cl)C(=O)c2cnn([C@H]3CC[C@](C)(C(=O)O)CC3)c2C(F)(F)F)O1` [Example 706, trans-4-(4-((2-(3,5-dichloro-4-pyridinyl)-2-oxoethyl)(((2S,5R)-5-methyltetrahydro-2-furanyl)methyl)carbamoyl)-5-(trifluoromethyl)-1H-pyrazol-1-yl)-1-methylcyclohexanecarboxylic acid], the IC50 was 32.4 nM.

Turning to `Cc1cc(Cl)c(C(=O)CN(CC2CC2)C(=O)c2cnn([C@H]3CC[C@](C)(C(=O)O)CC3)c2C(F)(F)F)c(Cl)c1` [Example 707, trans-4-(4-((cyclopropylmethyl)(2-(2,6-dichloro-4-methylphenyl)-2-oxoethyl)carbamoyl)-5-(trifluoromethyl)-1H-pyrazol-1-yl)-1-methylcyclohexanecarboxylic acid], the IC50 was 6.17 nM. `Cc1cc(Cl)c(C(=O)CN(CC2(C)CCCC2)C(=O)c2cnn([C@H]3CC[C@](C)(C(=O)O)CC3)c2C(F)(F)F)c(Cl)c1` [Example 709, trans-4-(4-((2-(2,6-dichloro-4-methylphenyl)-2-oxoethyl)((1-methylcyclopentyl)methyl)carbamoyl)-5-(trifluoromethyl)-1H-pyrazol-1-yl)-1-methylcyclohexanecarboxylic acid]: the IC50 was 0.891 nM. On to `C[C@]1(C(=O)O)CC[C@H](n2ncc(C(=O)N(CC(=O)c3c(Cl)cncc3Cl)CC3CC3)c2C(F)(F)F)CC1` [Example 710, trans-4-(4-((cyclopropylmethyl) (2-(3,5-dichloro-4-pyridinyl)-2-oxoethyl)carbamoyl)-5-(trifluoromethyl)-1H-pyrazol-1-yl)-1-methylcyclohexanecarboxylic acid], for which the IC50 was 27.5 nM.

With `CC1(CN(CC(=O)c2c(Cl)cncc2Cl)C(=O)c2cnn([C@H]3CC[C@](C)(C(=O)O)CC3)c2C(F)(F)F)CCCC1` [Example 711, trans-4-(4-((2-(3,5-dichloro-4-pyridinyl)-2-oxoethyl)((1-methylcyclopentyl)methyl)carbamoyl)-5-(trifluoromethyl)-1H-pyrazol-1-yl)-1-methylcyclohexanecarboxylic acid], the IC50 is 2.04 nM. Regarding `C[C@]1(C(=O)O)CC[C@H](n2ncc(C(=O)N(CC(=O)c3c(Cl)cncc3Cl)CC3(F)CC4(CC4)C3)c2C(F)(F)F)CC1` [Example 712, trans-4-(4-((2-(3,5-dichloro-4-pyridinyl)-2-oxoethyl)((5-fluorospiro[2.3]hex-5-yl)methyl)carbamoyl)-5-(trifluoromethyl)-1H-pyrazol-1-yl)-1-methylcyclohexanecarboxylic acid], the IC50 was 12.9 nM.

Regarding `C[C@]1(C(=O)O)CC[C@H](n2ncc(C(=O)N(CC(=O)c3c(Cl)cccc3Cl)CC3(F)CC4(CC4)C3)c2C(F)(F)F)CC1` [Example 713, (1r,4r)-4-(4-((2-(2,6-dichlorophenyl)-2-oxoethyl)((5-fluorospiro[2.3]hexan-5-yl)methyl)carbamoyl)-5-(trifluoromethyl)-1H-pyrazol-1-yl)-1-methylcyclohexanecarboxylic acid], the IC50 is 4.07 nM. On to `Cc1cc(Cl)c(C(=O)CN(C(=O)c2cnn([C@H]3CC[C@](C)(C(=O)O)CC3)c2C(F)(F)F)[C@H]2C[C@@H]3[C@H](C2)C3(C)C)c(Cl)n1` [Example 714, trans-4-(4-((2-(2,4-dichloro-6-methyl-3-pyridinyl)-2-oxoethyl)((1R,3r,5S)-6,6-dimethylbicyclo[3.1.0]hex-3-yl)carbamoyl)-5-(trifluoromethyl)-1H-pyrazol-1-yl)-1-methylcyclohexanecarboxylic acid], for which the IC50 is 3.55 nM. To `Cc1ncc(Cl)c(C(=O)CN(CC(C)(C)C)C(=O)c2cnn([C@H]3CC[C@](C)(C(=O)O)CC3)c2C(F)(F)F)c1Cl` [Example 715, trans-4-(4-((2-(3,5-dichloro-2-methyl-4-pyridinyl)-2-oxoethyl)(2,2-dimethylpropyl)carbamoyl)-5-(trifluoromethyl)-1H-pyrazol-1-yl)-1-methylcyclohexanecarboxylic acid] belongs 10.5 nM; to `CC1(CN(CC(=O)c2c(Cl)cc(F)cc2Cl)C(=O)c2cnn([C@H]3CC[C@@](C)(C(=O)O)CC3)c2C(F)(F)F)CC1` [Example 716, trans-4-(4-((2-(2,6-dichloro-4-fluorophenyl)-2-oxoethyl)((1-methylcyclopropyl)methyl)carbamoyl)-5-(trifluoromethyl)-1H-pyrazol-1-yl)-1-methylcyclohexanecarboxylic acid], 2.69 nM. `Cc1cc(Cl)c(C(=O)CN(CC2(C)CC2)C(=O)c2cnn([C@H]3CC[C@@](C)(C(=O)O)CC3)c2C(F)(F)F)c(Cl)c1` [Example 717]: the IC50 is 2.09 nM.

Take `Cc1cc(Cl)c(C(=O)CN(CC2CCCC2)C(=O)c2cnn([C@H]3CC[C@@](C)(C(=O)O)CC3)c2C(F)(F)F)c(Cl)c1` [Example 718, trans-4-(4-((cyclopentylmethyl)(2-(2,6-dichloro-4-methylphenyl)-2-oxoethyl)carbamoyl)-5-(trifluoromethyl)-1H-pyrazol-1-yl)-1-methylcyclohexanecarboxylic acid]: the IC50 was 1.74 nM. As for `CC(C)(C)CN(CC(=O)c1c(Cl)cncc1Cl)C(=O)c1cnn([C@H]2CC[C@H](CC(=O)O)CC2)c1C(F)(F)F` [Example 719, (trans-4-(4-((2-(3,5-dichloro-4-pyridinyl)-2-oxoethyl)(2,2-dimethylpropyl)carbamoyl)-5-(trifluoromethyl)-1H-pyrazol-1-yl)cyclohexyl)acetic acid], the IC50 was 6.03 nM. As for `CC(C)(C)CN(CC(=O)c1c(Cl)cncc1Cl)C(=O)c1cnn([C@H]2CC[C@@H](CC(=O)O)CC2)c1C(F)(F)F` [Example 720, (cis-4-(4-((2-(3,5-dichloro-4-pyridinyl)-2-oxoethyl)(2,2-dimethylpropyl)carbamoyl)-5-(trifluoromethyl)-1H-pyrazol-1-yl)cyclohexyl)acetic acid], the IC50 was 74.1 nM. Regarding `Cc1cc(Cl)c(C(=O)CN(C(=O)c2cnn([C@H]3CC[C@](C)(C(=O)O)CC3)c2C(F)(F)F)[C@H]2CCC23CCC3)c(Cl)c1` [Example 721, trans-4-(4-((2-(2,6-dichloro-4-methylphenyl)-2-oxoethyl)((1S)-spiro[3.3]hept-1-yl)carbamoyl)-5-(trifluoromethyl)-1H-pyrazol-1-yl)-1-methylcyclohexanecarboxylic acid], the IC50 is 0.832 nM.

Take `Cc1cc(Cl)c(C(=O)CN(C(=O)c2cnn([C@H]3CC[C@](C)(C(=O)O)CC3)c2C(F)(F)F)[C@@H]2CCC23CCC3)c(Cl)c1` [Example 722, trans-4-(4-((2-(2,6-dichloro-4-methylphenyl)-2-oxoethyl)((1R)-spiro[3.3]hept-1-yl)carbamoyl)-5-(trifluoromethyl)-1H-pyrazol-1-yl)-1-methylcyclohexanecarboxylic acid]: the IC50 is 9.55 nM. As for `Cc1cc(Cl)c(C(=O)CN(C[C@@H]2CC(C)(C)O2)C(=O)c2cnn([C@H]3CC[C@](C)(C(=O)O)CC3)c2C(F)(F)F)c(Cl)c1` [Example 723, trans-4-(4-((2-(2,6-dichloro-4-methylphenyl)-2-oxoethyl)(((2S)-4,4-dimethyl-2-oxetanyl)methyl)carbamoyl)-5-(trifluoromethyl)-1H-pyrazol-1-yl)-1-methylcyclohexanecarboxylic acid], the IC50 is 10 nM. Consider `Cc1cc(Cl)c(C(=O)CN(C[C@H]2CC(C)(C)O2)C(=O)c2cnn([C@H]3CC[C@](C)(C(=O)O)CC3)c2C(F)(F)F)c(Cl)c1` [Example 724, trans-4-(4-((2-(2,6-dichloro-4-methylphenyl)-2-oxoethyl)(((2R)-4,4-dimethyl-2-oxetanyl)methyl)carbamoyl)-5-(trifluoromethyl)-1H-pyrazol-1-yl)-1-methylcyclohexanecarboxylic acid], for which the IC50 is 6.03 nM. Regarding `Cc1cc(Cl)c(C(=O)CN(C[C@@]2(C)CCCO2)C(=O)c2cnn([C@H]3CC[C@](C)(C(=O)O)CC3)c2C(F)(F)F)c(Cl)c1` [Example 725, trans-4-(4-((2-(2,6-dichloro-4-methylphenyl)-2-oxoethyl)(((2S)-2-methyltetrahydro-2-furanyl)methyl)carbamoyl)-5-(trifluoromethyl)-1H-pyrazol-1-yl)-1-methylcyclohexanecarboxylic acid], the IC50 was 4.47 nM.

With `Cc1cc(Cl)c(C(=O)CN(C[C@@]2(C)CCCO2)C(=O)c2cnn([C@H]3CC[C@](C)(C(=O)O)CC3)c2C(F)(F)F)c(Cl)c1` [Example 726, trans-4-(4-((2-(2,6-dichloro-4-methylphenyl)-2-oxoethyl)(((2R)-2-methyltetrahydro-2-furanyl)methyl)carbamoyl)-5-(trifluoromethyl)-1H-pyrazol-1-yl)-1-methylcyclohexanecarboxylic acid], the IC50 is 2.75 nM.

These data come from US9365522B2, “Pyrazole amide derivative” (AMGEN INC., priority 2015, dated 2016).
